Laboratory results from the supplement of paper PMC9663587.

Key:
THZ1 [1] = compound: T1, CN(C)C/C=C/C(=O)Nc1ccc(C(=O)Nc2cccc(Nc3ncc(Cl)c(-c4c[nH]c5ccccc45)n3)c2)cc1 [THZ1]; assay: GR value, 72 h; higher = faster growth (1 = untreated, <0 = killing);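 also: breast cancer and non-malignant breast epithelial lines, nine half-log doses, viable cells counted by Hoechst and LIVE/DEAD dye imaging versus time-zero plates and DMSO controls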
Neratinib/HKI272 [2] = compound: T2, CCOc1cc2ncc(C#N)c(Nc3ccc(OCc4ccccn4)c(Cl)c3)c2cc1NC(=O)/C=C/CN(C)C [Neratinib/HKI272]; assay: as above
THZ1 [3] = compound: T1, THZ1; assay: increase in dead-cell fraction, 72 h; higher = more death;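 also: breast cancer cell lines in 384-well plates, stained with Hoechst plus LIVE/DEAD far red dye and imaged, cells above an LDR intensity threshold counted dead, Hoechst-negative corpses included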
Flavopiridol = compound: CN1CC[C@H](c2c(O)cc(O)c3c(=O)cc(-c4ccccc4Cl)oc23)[C@H](O)C1 [Flavopiridol]; assay: as above
LEE011/Ribociclib = compound: CN(C)C(=O)c1cc2cnc(Nc3ccc(N4CCNCC4)cn3)nc2n1C1CCCC1 [LEE011/Ribociclib]; assay: as above
[4] = compound: CCN1CCN(Cc2ccc(Nc3ncc(F)c(-c4cc(F)c5nc(C)n(C(C)C)c5c4)n3)nc2)CC1; assay: as above
THZ531 = compound: CN(C)C/C=C/C(=O)Nc1ccc(C(=O)N2CCC[C@@H](Nc3ncc(Cl)c(-c4c[nH]c5ccccc45)n3)C2)cc1 [THZ531]; assay: as above
[5] = compound: CCc1cnn2c(NCc3ccc[n+]([O-])c3)cc(N3CCCC[C@H]3CCO)nc12; assay: as above
Neratinib/HKI272 [6] = compound: T2, Neratinib/HKI272; assay: as above
BSJ-03-123 = compound: CC(=O)c1c(C)c2cnc(Nc3ccc(N4CCN(CCOCCOCCOCCNC(=O)COc5cccc6c5C(=O)N(C5CCC(=O)NC5=O)C6=O)CC4)cn3)nc2n(C2CCCC2)c1=O [BSJ-03-123]; assay: as above
[7] = compound: CC(=O)c1c(C)c2cnc(Nc3ccc(N4CCNCC4)cn3)nc2n(C2CCCC2)c1=O; assay: as above
YKL-5-124 = compound: C=CC(=O)Nc1ccc(C(=O)Nc2[nH]nc3c2CN(C(=O)N[C@H](CN(C)C)c2ccccc2)C3(C)C)cc1 [YKL-5-124]; assay: as above

ZR7530
GR value (THZ1 [1]; 0.0001 µM): 0.924 GR
GR value (THZ1 [1]; 0.0003162 µM): 1.19 GR
GR value (THZ1 [1]; 0.001 µM): 1.07 GR
GR value (THZ1 [1]; 0.003162 µM): 0.851 GR
GR value (THZ1 [1]; 0.01 µM): 0.985 GR
GR value (THZ1 [1]; 0.03162 µM): 0.289 GR
GR value (THZ1 [1]; 0.1 µM): -0.492 GR
GR value (THZ1 [1]; 0.3162 µM): -0.524 GR
GR value (THZ1 [1]; 1 µM): -0.638 GR
GR value (Neratinib/HKI272 [2]; 0.0003162 µM): 0.699 GR
GR value (Neratinib/HKI272 [2]; 0.001 µM): 0.374 GR
GR value (Neratinib/HKI272 [2]; 0.003162 µM): 0.0338 GR
GR value (Neratinib/HKI272 [2]; 0.01 µM): -0.0663 GR
GR value (Neratinib/HKI272 [2]; 0.03162 µM): -0.199 GR
GR value (Neratinib/HKI272 [2]; 0.1 µM): -0.22 GR
GR value (Neratinib/HKI272 [2]; 0.3162 µM): -0.262 GR
GR value (Neratinib/HKI272 [2]; 1 µM): -0.411 GR
GR value (Neratinib/HKI272 [2]; 3.162 µM): -0.497 GR
increase in dead-cell fraction (THZ1 [3]; 0.0001 µM): 0.0034
increase in dead-cell fraction (THZ1 [3]; 0.0003162 µM): 0.0045
increase in dead-cell fraction (THZ1 [3]; 0.001 µM): 0
increase in dead-cell fraction (THZ1 [3]; 0.003162 µM): -0.0128
increase in dead-cell fraction (THZ1 [3]; 0.01 µM): 0.0019
increase in dead-cell fraction (THZ1 [3]; 0.03162 µM): 0.0253
increase in dead-cell fraction (THZ1 [3]; 0.1 µM): 0.0921
increase in dead-cell fraction (THZ1 [3]; 0.3162 µM): 0.097
increase in dead-cell fraction (THZ1 [3]; 1 µM): 0.229
increase in dead-cell fraction (Flavopiridol; 0.0001 µM): -0.0012
increase in dead-cell fraction (Flavopiridol; 0.0003162 µM): 0.0085
increase in dead-cell fraction (Flavopiridol; 0.001 µM): -0.0127
increase in dead-cell fraction (Flavopiridol; 0.003162 µM): -0.0029
increase in dead-cell fraction (Flavopiridol; 0.01 µM): 0.0104
increase in dead-cell fraction (Flavopiridol; 0.03162 µM): 0.0159
increase in dead-cell fraction (Flavopiridol; 0.1 µM): 0.0202
increase in dead-cell fraction (Flavopiridol; 0.3162 µM): -0.0023
increase in dead-cell fraction (Flavopiridol; 1 µM): 0.191
increase in dead-cell fraction (LEE011/Ribociclib; 0.001 µM): 0.0122
increase in dead-cell fraction (LEE011/Ribociclib; 0.003162 µM): 0.0504
increase in dead-cell fraction (LEE011/Ribociclib; 0.01 µM): 0.0152
increase in dead-cell fraction (LEE011/Ribociclib; 0.03162 µM): 0.0426
increase in dead-cell fraction (LEE011/Ribociclib; 0.1 µM): 0.0177
increase in dead-cell fraction (LEE011/Ribociclib; 0.3162 µM): 0.0519
increase in dead-cell fraction (LEE011/Ribociclib; 1 µM): 0.0531
increase in dead-cell fraction (LEE011/Ribociclib; 3.162 µM): 0.0382
increase in dead-cell fraction (LEE011/Ribociclib; 10 µM): 0.0703
increase in dead-cell fraction ([4]; 0.001 µM): 0.0055
increase in dead-cell fraction ([4]; 0.003162 µM): -0.0075
increase in dead-cell fraction ([4]; 0.01 µM): 0.0272
increase in dead-cell fraction ([4]; 0.03162 µM): 0.0826
increase in dead-cell fraction ([4]; 0.1 µM): 0.0398
increase in dead-cell fraction ([4]; 0.3162 µM): 0.0332
increase in dead-cell fraction ([4]; 1 µM): 0.0706
increase in dead-cell fraction ([4]; 3.162 µM): 0.0448
increase in dead-cell fraction ([4]; 10 µM): 0.0361
increase in dead-cell fraction (THZ531; 0.0001 µM): 0.0074
increase in dead-cell fraction (THZ531; 0.0003162 µM): 0.0167
increase in dead-cell fraction (THZ531; 0.001 µM): 0.0003
increase in dead-cell fraction (THZ531; 0.003162 µM): 0.0105
increase in dead-cell fraction (THZ531; 0.01 µM): -0.0154
increase in dead-cell fraction (THZ531; 0.03162 µM): -0.0168
increase in dead-cell fraction (THZ531; 0.1 µM): 0.129
increase in dead-cell fraction (THZ531; 0.3162 µM): 0.234
increase in dead-cell fraction (THZ531; 1 µM): 0.0722
increase in dead-cell fraction ([5]; 0.0001 µM): -0.0019
increase in dead-cell fraction ([5]; 0.0003162 µM): 0.0016
increase in dead-cell fraction ([5]; 0.001 µM): -0.02
increase in dead-cell fraction ([5]; 0.003162 µM): 0.0075
increase in dead-cell fraction ([5]; 0.01 µM): -0.0026
increase in dead-cell fraction ([5]; 0.03162 µM): 0.0388
increase in dead-cell fraction ([5]; 0.1 µM): 0.103
increase in dead-cell fraction ([5]; 0.3162 µM): 0.138
increase in dead-cell fraction ([5]; 1 µM): 0.131
increase in dead-cell fraction (Neratinib/HKI272 [6]; 0.0003162 µM): 0.0037
increase in dead-cell fraction (Neratinib/HKI272 [6]; 0.001 µM): -0.0057
increase in dead-cell fraction (Neratinib/HKI272 [6]; 0.003162 µM): -0.0122
increase in dead-cell fraction (Neratinib/HKI272 [6]; 0.01 µM): -0.0066
increase in dead-cell fraction (Neratinib/HKI272 [6]; 0.03162 µM): 0.0011
increase in dead-cell fraction (Neratinib/HKI272 [6]; 0.1 µM): 0.0186
increase in dead-cell fraction (Neratinib/HKI272 [6]; 0.3162 µM): 0.0145
increase in dead-cell fraction (Neratinib/HKI272 [6]; 1 µM): 0.025
increase in dead-cell fraction (Neratinib/HKI272 [6]; 3.162 µM): 0.0495
increase in dead-cell fraction (BSJ-03-123; 0.001 µM): 0.0025
increase in dead-cell fraction (BSJ-03-123; 0.003162 µM): 0.0062
increase in dead-cell fraction (BSJ-03-123; 0.01 µM): 0.0113
increase in dead-cell fraction (BSJ-03-123; 0.03162 µM): 0.0285
increase in dead-cell fraction (BSJ-03-123; 0.1 µM): 0.002
increase in dead-cell fraction (BSJ-03-123; 0.3162 µM): 0.0395
increase in dead-cell fraction (BSJ-03-123; 1 µM): 0.0336
increase in dead-cell fraction (BSJ-03-123; 3.162 µM): 0.0895
increase in dead-cell fraction (BSJ-03-123; 10 µM): 0.039
increase in dead-cell fraction ([7]; 0.0003162 µM): 0.0003
increase in dead-cell fraction ([7]; 0.001 µM): -0.0021
increase in dead-cell fraction ([7]; 0.003162 µM): 0.0019
increase in dead-cell fraction ([7]; 0.01 µM): -0.0031
increase in dead-cell fraction ([7]; 0.03162 µM): 0.0102
increase in dead-cell fraction ([7]; 0.1 µM): 0.0763
increase in dead-cell fraction ([7]; 0.3162 µM): 0.0662
increase in dead-cell fraction ([7]; 1 µM): 0.0375
increase in dead-cell fraction ([7]; 3.162 µM): 0.0348
increase in dead-cell fraction (YKL-5-124; 0.001 µM): 0.039
increase in dead-cell fraction (YKL-5-124; 0.003162 µM): 0.0535
increase in dead-cell fraction (YKL-5-124; 0.01 µM): 0.0595
increase in dead-cell fraction (YKL-5-124; 0.03162 µM): 0.0181
increase in dead-cell fraction (YKL-5-124; 0.1 µM): 0.0418
increase in dead-cell fraction (YKL-5-124; 0.3162 µM): 0.04
increase in dead-cell fraction (YKL-5-124; 1 µM): 0.0587
increase in dead-cell fraction (YKL-5-124; 3.162 µM): 0.0125
increase in dead-cell fraction (YKL-5-124; 10 µM): 0.105
